Experimental findings from PubChem BioAssay (NCI) are described below.

Some test systems named below: NCI-H460 lung; M14 melanoma; SK-MEL-2 melanoma; MALME-3M melanoma; SW-620 colon; A498 renal; CCRF-CEM leukemia; OVCAR-4 ovarian; EKVX NSCLC; UACC-257 melanoma.
Common to all, as to assay: inhibition of tumour cell growth, NCI panel, 48 h

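Dose response: 5 concentrations. Exposure: 48 h. Format: 96-well plates. Endpoint: linear interpolation; highest concentration if not reached. GI50: concentration for 50% inhibition of growth. Definition used: TGI = concentration required for complete inhibition of growth.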

On to `N#Cc1c(N)c(C(=O)c2ccc3c(c2)OCCO3)n2c1CCCC2`, for which the GI50 in the experiment on NCI-H460 lung was 3.19 µM; with M14 melanoma, 2.08 µM; in the experiment with SK-MEL-2 melanoma, 4.06 µM; with MALME-3M melanoma, 2.6 µM; in the experiment with SW-620 colon, 2.07 µM; in the experiment with A498 renal, 1.79 µM. Also, the figures for the GI50 with CCRF-CEM leukemia and in the experiment on OVCAR-4 ovarian were 3.15 µM and over 69.1 µM, respectively. For the same molecule, the TGI with NCI-H460 lung was over 100 µM; in the experiment with M14 melanoma, over 100 µM; with SK-MEL-2 melanoma it was over 100 µM; in the experiment with MALME-3M melanoma, over 100 µM; in the experiment on SW-620 colon, over 100 µM; with A498 renal, 8.03 µM. Also, the TGI in the experiment with CCRF-CEM leukemia and in the experiment with OVCAR-4 ovarian was over 100 µM throughout.

With `C=C(C)[C@@H]1C/C=C(/COC(C)=O)CC[C@H]2O[C@@]2(C)CC/C=C(\C)CC1`, the GI50 was over 100 µM with NCI-H460 lung; over 100 µM in the experiment with M14 melanoma; over 100 µM in the experiment with SK-MEL-2 melanoma; over 100 µM with MALME-3M melanoma; over 100 µM with A498 renal; 26.9 µM in the experiment on CCRF-CEM leukemia. Besides, the GI50 in the experiment with OVCAR-4 ovarian is over 100 µM. In addition, the TGI was over 100 µM with NCI-H460 lung; over 100 µM with M14 melanoma; over 100 µM in the experiment on SK-MEL-2 melanoma; over 100 µM in the experiment on MALME-3M melanoma; over 100 µM in the experiment on A498 renal; 54.8 µM in the experiment with CCRF-CEM leukemia. Besides, the TGI with OVCAR-4 ovarian was over 100 µM.

On to `COc1ccc2cc(C(=O)N3CCC([C@@H](C)C(=O)NCc4ccc5c(c4)OCO5)CC3)[nH]c2c1`, for which the GI50 in the experiment on NCI-H460 lung, in the experiment with M14 melanoma, in the experiment on EKVX NSCLC, with SK-MEL-2 melanoma, in the experiment on MALME-3M melanoma and with SW-620 colon was over 100 µM throughout. For the same molecule, the GI50 in the experiment on A498 renal, in the experiment on CCRF-CEM leukemia and in the experiment with OVCAR-4 ovarian was over 100 µM throughout. In addition, the TGI in the experiment with NCI-H460 lung, in the experiment with M14 melanoma, in the experiment on EKVX NSCLC, in the experiment on SK-MEL-2 melanoma, with MALME-3M melanoma and in the experiment with SW-620 colon was over 100 µM throughout. Also, the TGI in the experiment with A498 renal, with CCRF-CEM leukemia and in the experiment on OVCAR-4 ovarian was over 100 µM each time.

In the case of `CC(C)(C)c1cc[n+](C[n+]2ccc(C(C)(C)C)cc2)cc1`, the TGI in the experiment on NCI-H460 lung, with M14 melanoma, with EKVX NSCLC, with SK-MEL-2 melanoma, in the experiment on MALME-3M melanoma and with SW-620 colon was over 100 µM throughout. For the same molecule, the TGI with A498 renal, in the experiment with CCRF-CEM leukemia and in the experiment on OVCAR-4 ovarian was over 100 µM each time.

For the molecule `COc1cc(/C=C/C(=O)c2ccccc2O)ccc1OCCCOc1cc2c(cc1OC)C(=O)N1CCC[C@H]1C=N2`, the GI50 is 0.0511 µM in the experiment on NCI-H460 lung; 0.0401 µM in the experiment on M14 melanoma; 0.215 µM in the experiment on EKVX NSCLC; 0.0999 µM with SK-MEL-2 melanoma; 0.0787 µM in the experiment on MALME-3M melanoma; 0.0479 µM in the experiment with A498 renal. For the same molecule, the GI50 in the experiment with CCRF-CEM leukemia is 0.027 µM; in the experiment on UACC-257 melanoma it was 0.158 µM; with OVCAR-4 ovarian, 0.116 µM. The TGI in the experiment with NCI-H460 lung was 11.1 µM; with M14 melanoma it was 0.172 µM; in the experiment on EKVX NSCLC, 0.955 µM; in the experiment with SK-MEL-2 melanoma, 0.392 µM; in the experiment on MALME-3M melanoma, 0.318 µM; in the experiment with A498 renal, 0.319 µM. Moreover, the figures for the TGI with CCRF-CEM leukemia, in the experiment with UACC-257 melanoma and in the experiment with OVCAR-4 ovarian were 0.094 µM, 0.527 µM and 15.2 µM, respectively.

On to `CCCCCCCCCCNC(=S)OC`, for which the TGI with NCI-H460 lung, in the experiment on M14 melanoma, with EKVX NSCLC, in the experiment with MALME-3M melanoma, with SW-620 colon and in the experiment with A498 renal was over 100 µM each time. For the same molecule, the TGI in the experiment with CCRF-CEM leukemia was over 100 µM; in the experiment on UACC-257 melanoma it was 83.8 µM; with OVCAR-4 ovarian, over 100 µM.

Consider `O=C(N/N=C/c1ccc([N+](=O)[O-])cc1)c1ccccc1Nc1ccnc(C(F)(F)F)c1`, for which the GI50 with NCI-H460 lung was 21.3 µM; in the experiment with M14 melanoma, 19.2 µM; in the experiment with EKVX NSCLC, 14.6 µM; with MALME-3M melanoma, 10.7 µM; with SW-620 colon it was 13.3 µM; in the experiment on A498 renal, 10.5 µM. The GI50 was over 100 µM with CCRF-CEM leukemia, 11.6 µM in the experiment on UACC-257 melanoma and 14.2 µM with OVCAR-4 ovarian. Also, the TGI in the experiment on NCI-H460 lung was 52.9 µM; in the experiment with M14 melanoma, 58.7 µM; with EKVX NSCLC, 59.5 µM; with MALME-3M melanoma it was 33.6 µM; in the experiment with SW-620 colon, 88.1 µM; in the experiment with A498 renal it was 43.7 µM. The results for the TGI in the experiment on CCRF-CEM leukemia, in the experiment with UACC-257 melanoma and with OVCAR-4 ovarian were over 100 µM, 37.9 µM and 56.3 µM, respectively.

Consider `CCOC(=O)NC(=O)c1cn(C2CCCCC2)c(=O)n(C)c1=O`, for which the TGI with NCI-H460 lung, with M14 melanoma, in the experiment on SK-MEL-2 melanoma, in the experiment with MALME-3M melanoma, in the experiment with SW-620 colon and in the experiment on A498 renal was over 100 µM in each case. In addition, the TGI with CCRF-CEM leukemia, with UACC-257 melanoma and in the experiment with OVCAR-4 ovarian was over 100 µM each time.

As to `CSc1nc2c(nc(N)n2C2OC(CO)C(O)C(O)C2O)c(=O)[nH]1` (stereo not drawn), the TGI in the experiment with NCI-H460 lung, in the experiment on M14 melanoma, in the experiment on EKVX NSCLC, with MALME-3M melanoma, in the experiment on SW-620 colon and with A498 renal was over 100 µM throughout. Further, the TGI with CCRF-CEM leukemia, with UACC-257 melanoma and with OVCAR-4 ovarian was over 100 µM each time.

As to `CC(=O)N(N=O)c1ccc(N(N=O)C(C)=O)cc1`, the TGI in the experiment on NCI-H460 lung, with M14 melanoma, in the experiment on SK-MEL-2 melanoma, with MALME-3M melanoma, with SW-620 colon and in the experiment on A498 renal was over 100 µM in each case. The TGI with CCRF-CEM leukemia and in the experiment on OVCAR-4 ovarian was over 100 µM throughout.
